# Measurements as given in patent US9155289B2, “Methods concerning PPAR delta and antagonists thereof” (University Court of the University of Dundee, priority 2008, dated 2015).
# Key:
# [1] = cited from earlier work
# unmodified mice = experiment: Control experiments in unmodified mice; format: in vivo, mouse; conditions: GW-501516 administered to unmodified mice
# Protocol: The mice were prepared for the purposes of studies concerning a wide range of cancer phenotypes and liver fat accumulation.
# PPARδ transgenic mice = experiment: Skin phenotype in PPARδ transgenic mice after PPARδ activation; format: in vivo, mouse
# Protocol: FIG. 5. Skin phenotype in PPARδ transgenic mice twenty days after beginning of GW501516 (GW) administration. (FIGS. 5a-5c) Gross morphology, (FIGS. 5d-5e) H&E histology of control mice not treated with GW (5d), or fourteen days after induction (5e-5g). Magnification 200× (5d,5e) or 400× (5f). (5g) Immunostaining for Ki67 of skin from PPARδ transgenic mice maintained in the absence (left) or presence (right) of GW. Magnification 200×. (5h) Induction of skin disease by topical application of either 0.3% of indole-3-carbinole (I3C, left) or I3C plus 0.3% GW501516 once daily to shaved abdominal skin. Gross macroscopic phenotype (top) and H&E histology of treated skin (bottom) was documented 10 days after beginning of treatment; and
# Mice were generated which are inducible to overexpress human PPARδ in the skin and a wide range of other tissues and organs, including the spleen, under the control of the CYP1A1 promoter. The CYP1A1 dioxin-responsive promoter was initially chosen because it is known to be transactivated by the aryl hydrocarbon receptor (AHR) upon binding of specific AHR agonist ligands. (Campbell et al., Regulation of the CYP1A1 promoter in transgenic mice: an exquisitely sensitive on-off system for cell specific gene regulation, J. Cell Science, 1996, 109 (Pt. 11), 2619-2625).
# The mice were generated by cloning full-length human PPARδ downstream of the human CYP1A1 promoter. Plasmids encoding human PPARδ were prepared by the following protocol. The coding sequences of PPARδ, were amplified using primers PRMG15 (5′-[…]-3′) and PR MG3 (5′-[…]-3′), respectively (XbaI-sites underlined, ATG start codon in bold). The PCR products were cleaved with XbaI and cloned in plasmid pUHD10-3 (M. Gossen, unpublished, Genbank accession number U89931) creating pMGD7 (PPARδ). The integrity of the inserts were confirmed by sequencing and cleaved out using BamHI and ligated into plasmid pAHIR1-β-gal (Campbell, 1996} cleaved with BglII, resulting in the plasmid pMGD72 (PPARδ). The proper orientations of the inserts were confirmed by restriction endonuclease analysis and sequencing. Transgenic mice were generated by microinjection of the expression unit (NotI fragment) of the plasmid pMGD72 into pro-nuclei of C57BL/J6×CBA F1 fertilized eggs. Mice were maintained under standard animal house conditions.
# In a first study, indole-3-carbinole (I3C) introduced into the chow at a final concentration of 0.5% (w/w), for one week, was used to induce expression of PPARδ. The resulting translated protein was conformationally activated by the specific PPARδ ligand GW-501516 (2-Methyl-4-((4-methyl-2-(4-trifluoromethylphenyl)-1,3-thiazol-5-yl)-methylsulfanyl)phenoxy-acetic acid), added in powdered form to the chow at a concentration of 0.003% (w/w) for an additional 16 days. This activation mechanism is illustrated in FIG. 1. Thus, PPARδ can be transcriptionally activated and conformationally activated by concurrent feeding with I3C and GW-501516.
# human PPARδ = conditions: mouse, in vivo
# Protocol: FIG. 2(a) illustrates Western blot analyses of 10 μg of total protein extract of transgenic mice fed I3C or control diet in an experiment in which PPARδ expression was induced in mice harbouring CYP1A1-controlled PPARδ by oral administration of indole-3-carbinol (I3C) for seven days (top); and an experiment in which PPARδ was expressed by feeding of I3C and activated by additional administration of the specific PPARδ ligand GW-501516 (GW) for 25 days (bottom); FIG. 2(b) is a close-up photograph of the macroscopic phenotype of mice receiving both I3C and GW-501516 administration; FIG. 2(c) is a photograph of standard H&E histology stains prepared from abdominal skin of the animals shown in FIG. 2(a);
# FIG. 3 illustrates experimental results from arising from the inducible expression of PPARδ in mouse epidermis. FIG. 3(a) Cis-regulatory elements in the rat CYP1A1 promoter used to drive inducible expression of human PPARδ. Upper panel: Map of the sebaceous-specific G/C-box element and the AHR-responsive DXE/XRE cluster in the cyp1A1 promoter as well as the human K5 promoter. Bottom panel: ClustalW alignment of promoters identified by a BLAST search using the 20 bp G/C element of the Cyp1A1 promoter. All of the genes shown were found in the top 10% percentile of all transcripts expressed in human sebaceous glands (GDS3215 at the NCBI GEO website www.ncbi.nlm.nih.gov/geo/). FIG. 3(b) illustrates immunohistochemistry using anti-PPARδ of mice transgenic for human PPARδ driven by the rat CYP1A promoter (PPARδ TG), as well as wild type mice. Magnification 200×; FIG. 3(c) illustrates immunohistochemistry of abdominal skin samples from PPARδ transgenic mice taken at the indicated times after initiation of PPARδ activation mediated by administration of the synthetic ligand GW501516 in the chow; FIG. 3(d) illustrates PPARδ immunohistochemistry 48 h after topical application of indole-3-carbinole (I3C) to the skin of PPARδ transgenic mice at 200× (left) and 400× (right) magnification; […]
smiles,measurement,setting,value
"COC(=O)c1sccc1S(=O)(=O)Nc1ccc(Nc2ccccc2)cc1OC [GSK 0660, methyl 3-({[2-(methoxy)-4-phenyl]amino}sulfonyl)-2-thiophenecarboxylate]",in vivo bioavailability,[1],lacks in vivo bioavailability
"Cc1cc(SCc2sc(-c3ccc(C(F)(F)F)cc3)nc2C)ccc1OCC(=O)O [GW-501516, 2-Methyl-4-((4-methyl-2-(4-trifluoromethylphenyl)-1,3-thiazol-5-yl)-methylsulfanyl)phenoxy-acetic acid]",psoriatic symptoms,unmodified mice,no psoriatic symptoms were observed
same,"skin phenotype (scaling, erythema, skin thickening)","PPARδ transgenic mice; GW501516 alone, without I3C, as early as seven days after initiation","scaling, erythema formation, and skin thickening was notable in all PPARδ transgenic mice"
same,"skin phenotype (scaling, skin thickening, inflammation)","PPARδ transgenic mice; PPARδ induced by I3C feeding (0.5% w/w chow), activated by GW-501516 0.003% w/w in chow, after 25 days",a dramatic skin phenotype was observed
same,skin phenotype,"PPARδ transgenic mice; topical I3C plus additional topical GW501516 (0.3% each, once daily, 10 days)",effectively replicated
same,PPARδ expression in the epidermis,human PPARδ,strong expression of PPARδ in the epidermis
"OCc1c[nH]c2ccccc12 [I3C, indole-3-carbinole]",skin changes,"PPARδ transgenic mice; prolonged chow with I3C 0.5% w/w, in the absence of PPARδ activation",caused no skin changes
same,skin phenotype,PPARδ transgenic mice; topical I3C alone to the skin,unable to elicit a phenotype
same,PPARδ expression in skin,human PPARδ,inducible
same,PPARδ expression in skin and lymph nodes,human PPARδ,strong induction of PPARδ expression
